This is an account of results in US20230357761A1, “ACTIVATORS OF TYPE III CAS PROTEINS” (THE REGENTS OF THE UNIVERSITY OF CALIFORNIA, priority 2020, published 2023).

[5mC] = 5-methylcytosine; d = 2'-deoxy (DNA); r = 2'-OH (RNA); f = 2'-fluoro

Data set [1] has as its target T1, T. thermophilus Csm6 (TtCsm6) (Thermus thermophilus, UniProt Q53W17).
T1 sequence (Q53W17 1-464): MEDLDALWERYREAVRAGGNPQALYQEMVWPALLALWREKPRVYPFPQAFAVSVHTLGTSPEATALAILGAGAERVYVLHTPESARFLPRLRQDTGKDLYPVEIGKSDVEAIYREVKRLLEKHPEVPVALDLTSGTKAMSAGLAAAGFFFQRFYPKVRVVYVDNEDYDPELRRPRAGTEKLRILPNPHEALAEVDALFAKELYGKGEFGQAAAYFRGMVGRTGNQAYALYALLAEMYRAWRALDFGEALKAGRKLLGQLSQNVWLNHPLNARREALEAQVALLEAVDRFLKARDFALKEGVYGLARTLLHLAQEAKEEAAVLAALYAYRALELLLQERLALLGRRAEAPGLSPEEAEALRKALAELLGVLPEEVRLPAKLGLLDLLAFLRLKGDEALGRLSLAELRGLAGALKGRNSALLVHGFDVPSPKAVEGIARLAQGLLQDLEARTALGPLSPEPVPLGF
Nature of the data set: Cas13-coupled TtCsm6 activation assay, fluorescence of cleaved polyC RNA reporter. Format: biochemical. Particulars: for kinetics of development of fluorescent signal over time / duration and level of fluorescent signal: FIG. 2; for kinetics of development of fluorescent signal over time: 20 nM Cas13 RNP, 100 nM Csm6, 100 pM Cas13 activator [R010], 200 nM C5 reporter, 2 μM Type III accessory nuclease activator, IGI buffer, versus unmodified NCR142; for duration and level of fluorescent signal: same reaction as E1, versus unmodified NCR142, which was used at 4 times the concentration. The procedure: To test the impact of modifications of the Type III accessory nuclease activators, the following system was used (see FIG. 1). Cas13 ribonucleoprotein complexes (RNP) were assembled using LbuCas13 protein and guides at room temperature at a concentration of 0.5 μM Cas13 in 1× reaction buffer.
In some experiments, the 1× reaction buffer comprised 20 mM HEPES, pH 6.8, 50 mM KCl, 5 mM MgCl2, 100 μg/mL BSA, 0.01% Igepal CA, 2% glycerol (“IGI buffer”) while in other experiments, the 1× reaction buffer comprised 20 mM HEPES, pH 6.8, 50 mM KCl, 5 mM MgCl2, 5% glycerol (“Ott buffer”). Once assembled, the RNPs were diluted with 1× reaction buffer to 10× the final [RNP] in the reaction (200 nM for 20 nM final concentration). Concentrated T. thermophilus Csm6 (TtCsm6) protein was also diluted to 10× the concentration (1 μM for 100 nM final concentration) in 1× reaction buffer. The activator mix was assembled on ice, containing 20× concentration of the Cas13 activator, 20× concentration of the secondary Csm6 activator, and 10× of a polyC RNA reporter (6-FAM-CCCCC-Iowa Black®, Integrated DNA Technologies) in 1× reaction buffer. The proteins were then mixed together to make an RNP/protein master mix in 1× reaction buffer. Volumes to use were determined such that 15 μL of this master mix was added to 5 μL of the activator mix for a final volume of 20 μL for the reaction. Reactions were performed in triplicate. The RNP master mix was equilibrated at room temperature for 10-15 minutes. 15 μL of the RNP/protein master mix was then added to 5 μL of the activator master mix (pre-loaded into 384-well low-volume flat-bottom black assay plate, Corning) to start the reaction. Fluorescence of the unquenched 6-FAM group (excitation 485 nm, emission 535 or 528 nm) was monitored over 1-2 hours (one reading every 1.5 or 2 min) in a Tecan or Biotek Cytation 5 plate reader at 37° C. An increase in fluorescence correlates with dequenching of the FAM due to RNA cleavage by TtCsm6.
NCR142, NCR372, NCR373 and NCR374 were compared in the system described above. Specifically, 20 nM Cas13 RNP (assembled at a ratio of 2:1 guide to protein), 100 nM Csm6, 100 pM Cas13 activator [R010]], 200 nM C5 RNA reporter (i.e., 5′-6-FAM-CCCCC-Iowa Black-3′, Integrated DNA Technologies), 2 μM Type III accessory nuclease activator, 1×IGI buffer were used, with the experiment monitored on a Tecan Spark.
Next, several different 2′-deoxy modified Type III accessory nuclease activators were compared where the activators had 1 to 3 modifications and the modifications were in different locations (see Table 3 and FIG. 4). In these experiments, 20 nM Cas13 RNPs using a guide, GJK073, targeting a short synthetic RNA target, GJK075, was used (see Table 2). In addition, 100 nM Csm6 was used, plus 0 to 200 pM Cas13 activator (GJK075), 2 μM Csm6 activator, 200 nM C5 reporter, and Cas13 1× buffer (IGI). The experiments were carried out at 37° C. in low volume flat-bottom black plates and fluorescence was measured on a Biotek Cytation 5.
The NCR497 activator was also tested over a range of Type III accessory nuclease activator concentrations and Type VI nuclease activator concentrations. In these experiments, 20 nM Cas13 RNPs comprising the NCR316 guide at a ratio of 2:1 protein to guide were used. In addition, 100 nM TtCsm6 and 200 nM C5 reporter was used where the reaction was carried out in low-volume, flat-bottom plates at 37° C. analyzed on a Biotek citation 5. Type VI nuclease activator (aNCR316) was used at 2 pM or 200 pM concentrations.
A Type III accessory nuclease activator comprising a single 2′-fluoro modified nucleotide was also modified to create an activator with a single cleavage location for the Cas13 trans nuclease activity. In this Type III accessory nuclease activator, the poly U stretch was replaced with a single U nucleotide followed by C nucleotides. […]

For the next data set, the target named is T2, Csm6 (Thermus thermophilus, UniProt Q53W17).
T2 sequence (Q53W17 1-464): T1 sequence (Q53W17 1-464)
Put plainly: Sensitivity of Cas13 RNA detection with and without Csm6 and its Type III accessory nuclease activator. In kind it is biochemical, T. thermophilus. Particulars: 37° C. How it is done: In some experiments, the 1× reaction buffer comprised 20 mM HEPES, pH 6.8, 50 mM KCl, 5 mM MgCl2, 100 μg/mL BSA, 0.01% Igepal CA, 2% glycerol (“IGI buffer”) while in other experiments, the 1× reaction buffer comprised 20 mM HEPES, pH 6.8, 50 mM KCl, 5 mM MgCl2, 5% glycerol (“Ott buffer”). Once assembled, the RNPs were diluted with 1× reaction buffer to 10× the final [RNP] in the reaction (200 nM for 20 nM final concentration). Concentrated T. thermophilus Csm6 (TtCsm6) protein was also diluted to 10× the concentration (1 μM for 100 nM final concentration) in 1× reaction buffer. The activator mix was assembled on ice, containing 20× concentration of the Cas13 activator, 20× concentration of the secondary Csm6 activator, and 10× of a polyC RNA reporter (6-FAM-CCCCC-Iowa Black®, Integrated DNA Technologies) in 1× reaction buffer. The proteins were then mixed together to make an RNP/protein master mix in 1× reaction buffer. Volumes to use were determined such that 15 μL of this master mix was added to 5 μL of the activator mix for a final volume of 20 μL for the reaction. […] Fluorescence of the unquenched 6-FAM group (excitation 485 nm, emission 535 or 528 nm) was monitored over 1-2 hours (one reading every 1.5 or 2 min) in a Tecan or Biotek Cytation 5 plate reader at 37° C. An increase in fluorescence correlates with dequenching of the FAM due to RNA cleavage by TtCsm6. […]

With “AAdAAUUUUUU (AAAAUUUUUU; sugars from the 5' end r2 d1 r7, backbone not given here) [NCR654]”, the “kinetics and signal, 2′-deoxy modified activators” value in data set [1] (FIG. 4, guide GJK073, 0 to 200 pM Cas13 activator GJK075, 2 μM Csm6 activator, 37° C., versus unmodified activators) is “rapid kinetics and were able to achieve a high and stable signal”.

Consider “AfAAAUCC (metdC) (metdc) C (AAAAUCCCCC; sugars from the 5' end r1 f1 r5 d2 r1, [5mC] at 8, 9, backbone not given here) [NCR690]”, for which, in data set [1] (FIGS. 8 and 9, activator at 2, 0.2 and 0.1 μM, Cas13 activator at 200 or 2 pM), the “activity of the system” value was “robust activity”. Besides, in data set [1] (FIGS. 8 and 9, compared to NCR497 at the same concentrations), the background signal entry is on record as “higher background signal compared to the NCR497”.

On to “AfAAAUUUUUU (AAAAUUUUUU; sugars from the 5' end r1 f1 r8, backbone not given here) [NCR497]”, for which the “limit of detection of the Cas13 activator” value with Csm6 (50 nM Cas13 RNP (guides NCR604 and NCR612), 100 nM Csm6, 2 μM NCR497, gblock7 transcript 0-20 pM, Ott buffer) was “approximately 2 fM”. The “increase in sensitivity when Csm6 reagents were added to the Cas13 detection system” value with Csm6 (FIG. 10, 200 nM Cas13 RNP (guide NCR316) alone vs plus 100 nM Csm6 and 2 μM NCR497, aNCR316 200 aM to 200 pM, IGI buffer) stood at 100 fold. Moreover, in data set [1] (FIG. 5), the “kinetics, 2′-fluoro modified activators” value is “rapid and stable kinetics”. In addition, the “background signal (0 pM Cas13 activator curves)” value in data set [1] (FIG. 5, compared to the 2′-deoxy modified activators) is recorded as “decreased background signal”. Also, the “signal in the reaction” value in data set [1] (FIGS. 6 and 7, guide NCR316, 2 pM Type VI nuclease activator aNCR316, versus NCR142 at 2 pM or 200 pM) is “better signal”.

“dAdAdAAUUUUUU (AAAAUUUUUU; sugars from the 5' end d3 r7, backbone not given here) [NCR373]”: in data set [1], the “kinetics of development of fluorescent signal over time” value is given as “slower kinetics than the unmodified Type III accessory nuclease activator”; the “duration and level of fluorescent signal” value was “longer lived and reached higher levels than the unmodified activator”.

Take “fAfAfAAUUUUUU (AAAAUUUUUU; sugars from the 5' end f3 r7, backbone not given here) [NCR374]”: in data set [1], the “kinetics of development of fluorescent signal over time” value is “slower kinetics than the unmodified Type III accessory nuclease activator”; the “duration and level of fluorescent signal” value is “longer lived and reached higher levels than the unmodified activator”.
